Laboratory results published in patent publication US5385922A, “Thiazolidine derivatives” (Cedona Pharmaceuticals B.V., priority 1990, dated 1995).
Counter-ions that a name gives are not always drawn. Like-named read-outs stand apart in the source and are kept apart here.

What was measured:
arterial blood pressure = experiment: Anesthetized rabbit experiments: arterial blood pressure and heart rate after infusion; format: in vivo, New Zealand white rabbits; further: key: Inactive: No decrease or decrease less than 5%; Active: Decrease between 5 and 40%; Very Active: Decrease greater than 40%
Protocol: In the anesthetized rabbits, the decrease of arterial blood pressure and the effect on the heart rate after infusion of the test compounds was determined.
New Zealand white rabbits (2.5-3 kg) were anesthetized (30 mg×kg^-1 pentobarbitone, i.v., supplemental doses as needed). Tracheotomy was performed, and an intra-tracheal cannula was inserted. No artificial ventilation was applied and body temperature was maintained at 37°-38° C.
Left ventricular pressure (LVP) was measured (Millar Mikro-Tip catheter via the right carotid artery with transducer in the left ventricle). The LVP signal was differentiated electronically to obtain the rate of change of LVP (LV dP/dt). The heart rate (HR) was derived from the LVP pulse signal. The jugular vein was cannulated for infusion of the test compounds. Aortic blood pressure (SAP and DAP) was monitored (Gould-Statham pressure transducer) by inserting a polyethylene catheter filled with heparin (50 IU×ml^-1) through the femoral artery into the abdominal aorta. Heparin (150 IU×kg^-1, i.v.) was administered to prevent blood clotting.
After completion of surgical procedures, the rabbits were allowed to recover for 15 minutes before drug administration was started.
Drugs were infused at constant rate (0.5 ml×min^-1) for 10 minutes at various doses, resulting in a typical dose range of 2.0, 20.0 and 200 μg×kg^-1 ×min^-1 (2.5 kg rabbit).
Due to poor solubility, 1 mg×ml^-1 solutions of all the compounds tested were prepared in Intralipid® 10%, containing 10% (v/v) dimethyl sulfoxide (DMSO). […] At the infusion of lower doses, the 1 mg×ml^-1 stock solutions were diluted with Intralipid® 10%.
The presented data are based on the effects obtained at the end of the 10 min infusion period at the highest dose tested (150-200 μg×kg^-1 ×min^-1). The indicated ratings are referring to the effects (decrease, defined as percentage of basal value before infusion of the drug) on arterial blood pressure as follows: […]

contracted rat aorta = experiment: In vitro rat aorta assay: relaxation of aorta strips contracted with phenylephrine; format: cell-based; conditions: read-out: EC50 (mean): concentration at which residual contraction is 50% of maximum
Protocol: Strips of thoracial rat aortae (without aortic arch, helically cut; length 1-1.5 cm; width about 2 mm) were place in an organ bath [20 ml; Krebs Ringer medium bubbled with O2 /CO2 (95/5%) at 37° C.]. A resting tension of 0.5 g was applied and the preparations were equilibrated during 100 min (fresh buffer solution every 20 min). The strips were isotonically contracted with 10^-7 M phenylephrine.
Drug-induced relaxation was tested at increasing concentration (half log steps), till maximal or full relaxation (corresponding to basal precontraction value of organ length) had been reached.
Responses were calculated as change in organ length relatively to maximal displacement by contraction, EC50 values corresponding to the drug concentration at which residual contraction is 50% of maximum.

[1] = tested on: angiotensin converting enzyme (ACE); conditions: literature, WO 89/12627, cited from earlier work
[2] = tested on: rat aorta contracted using phenylephrine; conditions: cited from earlier work
[3] = anesthetized rabbit, end of 10 min infusion at highest dose tested (150-200 μg×kg^-1×min^-1), decrease as percentage of basal value
[4] = rat aorta strips contracted with 10^-7 M phenylephrine

Compound	Activity with regard to the lowering of blood pressure (arterial blood pressure; [3])	EC50 (contracted rat aorta; [4])	also measured
O=C(O)C1CSC(c2ccccc2OC[C@H]2CC[C@H](CO[N+](=O)[O-])CC2)N1 (relative stereo) [Example XXIX, 4-Carboxy-2-(2-{[4-nitroxymethyl-(trans)-cyclohexyl]methoxy}phenyl)thiazolidine]	Active	21 nM	
O=C(O)C1CSC(c2ccc(OCCO[N+](=O)[O-])cc2)N1 (stereo not shown) [Example XIII, 4-Carboxy-2-[4-(2-nitroxyethoxy)phenyl]thiazolidine]	Active	22 nM	
COc1ccc(OCCO[N+](=O)[O-])c(C2NC(C(=O)O)CS2)c1 (stereo not shown) [Example XV, 4-Carboxy-2-[5-methoxy-2-(2-nitroxyethoxy)phenyl]thiazolidine]	Active	7 nM	
O=C(O)C1CSC(c2ccccc2OCCO[N+](=O)[O-])N1 (stereo not shown) [Example XVI, 4-Carboxy-2-[2-(2-nitroxyethoxy)phenyl]thiazolidine]	Active		
O=C(O)C1CSC(c2cc([N+](=O)[O-])ccc2OCCO[N+](=O)[O-])N1 (stereo not shown) [Example XXI, 4-Carboxy-2-[5-nitro-2-(2-nitroxyethoxy)phenyl]thiazolidine]			Activity with regard to the lowering of blood pressure (arterial blood pressure; rabbit, in vivo): Active; EC50 (contracted rat aorta; Rattus norvegicus): 25 nM
CC(=O)N1C(CCc2ccccc2)SCC1C(=O)OC[C@H]1CC[C@H](CO[N+](=O)[O-])CC1 (stereo partly shown) [Example XXII, N-acetyl-2-(2-phenylethyl)-4-[(4-nitroxymethylcyclohexyl)methoxycarbonyl]thiazolidine]	Active	23 nM	
O=C(O)C1CSC(c2cc(Cl)ccc2OCCO[N+](=O)[O-])N1 (stereo not shown) [Example XXV, 4-Carboxy-2-[5-chloro-2-(2-nitroxyethoxy)phenyl]thiazolidine]	Active	20 nM	
CC(C)(COc1ccccc1C1NC(C(=O)O)CS1)CO[N+](=O)[O-] (stereo not shown) [Example XXX, 4-Carboxy-2-[2-(2,2-dimethyl-3-nitroxypropoxy)phenyl]thiazolidine]	Active	102 nM	
C[C@H](CSN=O)C(=O)N1CCC[C@H]1C(=O)O [S-ni-trosocaptopril]			ACE-inhibiting effect compared with captopril (in words) [1]: comparable to that of captopril; IC50 ([1]; read-out: ACE-inhibiting effect IC50): ~1 nM; IC50 ([2]; rat aorta contracted using phenylephrine, read-out: relaxing effect via the NO portion, IC50): ~100 nM; relaxing concentration relative to ACE-inhibiting concentration ([2]; relaxation IC50 vs ACE-inhibition IC50): about 100 times higher
CC1(C)SC(c2ccccc2OCCO[N+](=O)[O-])N[C@H]1C(=O)O (stereo partly shown) [XXVI, 4-Carboxy-5,5-dimethyl-2-[(2-nitroxyethoxy)phenyl]thiazolidine]	Active	57 nM	
O=[N+]([O-])OCCOc1ccccc1C1NCCS1 (stereo not shown) [XXVII, 2-[(2-Nitroxyethoxy)phenyl]thiazolidine oxalate hydrate]	Active	6.7 nM	
CCOC(=O)[C@@H]1CSC(c2ccccc2OCCO[N+](=O)[O-])N1 (stereo partly shown) [XXVIII, 4-Ethoxycarbonyl-2-[2-(2-nitroxyethoxy)phenyl]thiazolidine 4-toluenesulphonate]	Active	9.4 nM	
CC(C)(CO[N+](=O)[O-])C(=O)N1C(C(=O)O)CSC1c1ccccc1 (stereo not shown) [XXXIII, 4-Carboxyl-N-(2,2-dimethyl-3-nitroxypropionyl)-2-phenylthiazolidine]		2770 nM	
O=C(O)C1CSC(c2ccccc2OCCCCO[N+](=O)[O-])N1 (stereo not shown) [XXXIV, 4-Carboxy-2-[2-(4-nitroxybutoxy)phenyl]thiazolidine]		17 nM	
CC(COc1ccccc1C1NC(C(=O)O)CS1)O[N+](=O)[O-] (stereo not shown) [XXXVI, 4-Carboxy-2-[2-(2-nitroxypropoxy)phenyl]thiazolidine]	Active	48 nM	
N-benzoyl-2-butyl-5,5-dimethyl-4-[(5-nitroxyisosorbide)carbonyl]thiazolidine [Example III]	Active	98 nM	
